Assay: Safety of THC in the psoriasis clinical study
Settings: human, in vivo
Source text: • Study Duration: 45 days • Population: 10 psoriasis affected subjects • Intervention: THC formulated as a cream with pharmaceutically acceptable carriers applied topically three times a day for 45 days.
The primary objective in this study was to determine the efficacy and safety of the THC cream. The parameters to detect the efficacy and safety of the medication included relief from the characteristic symptoms of psoriasis like itching, erythema, scaling, infiltration, and the extent of clearance of psoriasis lesions.

With Tetrahydrocurcuminoids [THC] the Toxic side effects was “devoid of toxic side effects”.

Reference: patent publication US20080058426A1, “COMPOSITION AND METHOD FOR TREATING PSORIASIS” (priority 2006, published 2008)
